Experimental data taken from patent US12410124B2 (priority 2019, dated 2025).

Legend:
Format in all cases: in vivo
[1] = test system: substantia nigra pp38; experiment: Substantia nigra pp38 protein expression in MPTP Parkinson's disease model mouse (immunofluorescence); conditions: percentage of mean intensity of blank control group, gavage 21 days after MPTP modeling
Description: (§1) Neurotoxins can be used to establish PD animal models. Currently, 1-methyl-4-phenyl-1,2,3,6-tetrahydropyridine (MPTP) is the sole synthetic toxin which is recognized to induce PD symptoms in human and non-human primates and in mice. Using MPTP subacute modeling method, C57BL/6J male mice were intraperitoneally injected with MPTP 30 mg/kg, once a day for 5 consecutive days. The experiment animals were divided into blank control group, MPTP model group, and compound treatment group. For the […] compound treatment group, the compound was administrated by gavage for 21 consecutive days after the completion of modeling; for the MPTP model group, the normal saline was administrated by gavage for 21 consecutive days after the completion of modeling; and for the blank control group, the normal saline was first intraperitoneally injected for 5 days, and then administrated by gavage for 21 days.
(§2) The p38 mitogen-activated protein kinase (p38 MAPK) is expressed in both neurons and glial cells, and is the intersection point of neuron-glial cell network information regulations. The activation of p38 signaling pathway is an important initiator of neuronal degeneration, which continuously induces the apoptosis of dopaminergic neurons in multiple ways. It has become a research hotspot for the treatment of PD. Studies have shown that the protective mechanism of CAPE against the death of primary cultured cerebellar granule neurons induced by glutamate lies in inhibiting the activation of p38 phosphorylation and in turn inhibiting the activation of the caspase 3 apoptotic pathway to prevent neuronal apoptosis. Therefore, the MPTP-induced PD mouse model can be used to investigate the inhibitory effect of the target compounds on the activation of p38 phosphorylation on the overall animal level.
Half of experiment mice in each group were taken to separate the midbrain after perfusion and fixation. The tissue was trimmed, and the substantia nigra-striatum area was taken to prepare paraffin sections. The double immunofluorescence staining for TH and phosphorylated p38 was performed to observe the coexpression of TH and phosphorylated p38, for the statistics of the change in the phosphorylated p38 protein expression. The experiment included blank control group, MPTP model group, positive control group (caffeic acid phenethyl ester, CAPE), prototype control group (styryl sulfone compounds 3B, 3C, 3D, and 3G, whose structures are shown as above), and target compound group.

[2] = test system: midbrain pp38; experiment: Midbrain pp38 protein expression in MPTP Parkinson's disease model mouse (western-blotting); conditions: midbrain total protein, GAPDH internal reference, gavage 21 days after MPTP modeling
Description: as §1, §2
(§3) Half of experiment mice in each group were taken to extract the total midbrain protein, and the change in the midbrain phosphorylated p38 protein expression was determined by western-blotting using GAPDH as the internal reference. The experiment included blank control group, MPTP model group, positive control group (caffeic acid phenethyl ester, CAPE), prototype control group (styryl sulfone compounds 3B, 3C, 3D, and 3G, whose structures are shown as above), and target compound group.

[3] = test system: midbrain p-α-s; experiment: Midbrain p-α-s protein expression in MPTP Parkinson's disease model mouse (western-blotting); conditions: midbrain total protein, GAPDH internal reference, gavage 21 consecutive days after MPTP modeling
Description: as §1
Alpha-synuclein is an “unfolded protein” in its natural state. It exists in a monomeric form, and participates in the physiological functions such as the release of neurotransmitters, the establishment of synaptic junctions, and the regulation of synaptic plasticity. Under pathological conditions, more than 90% of alpha-synuclein is phosphorylated at serine of position 129 and converted into phosphorylated alpha-synuclein (p-α-s), thereby forming Lewy bodies. The formation of Lewy bodies is one of the main pathological manifestations and pathological mechanisms for Parkinson's disease, and plays an important role in the formation and development of PD. The detection of the p-α-s expression in the midbrain and substantia nigra of PD model mice can evaluate the neuroprotective activity of the compound.
as §3, with “P-α-s” for “phosphorylated p38”

[4] = test system: midbrain CD11b; experiment: Midbrain CD11b protein expression in MPTP Parkinson's disease model mouse (western-blotting); conditions: midbrain, MPTP Parkinson's disease model mouse, western-blotting
Description: as §1
Neuron-glial cell network homeostasis disorder is an important factor for the selective and progressive death of substantia nigra dopaminergic neurons in PD. In the neurotoxic effect of MPTP, the excessive activations of microglial cells and astrocytes produce a variety of inflammatory cytokines and reactive oxygen species (ROS). These inflammatory factors and ROS amplify their respective toxicities and mediate malignant feedback loop, causing a cascade inflammation response and aggravating the pathological process of PD. CD11b and GFAP are the marker proteins for activations of microglial cells and astrocytes, respectively. Therefore, the effect of the target compounds on the activations of the microglial cells and astrocytes in the substantia nigra, hippocampus, and midbrain areas of MPTP-induced PD mice can be investigated, to explore the mechanism of the anti-PD effect of the target compounds by inhibiting the neuroinflammation.
[…] The experiment included blank control group, MPTP model group, positive control group (caffeic acid phenethyl ester, CAPE), prototype control group (styryl sulfone compounds 3B, 3C, 3D), and 3G, whose structures are shown as above), and target compound group.

[5] = test system: GCLC; experiment: Midbrain GCLC expression in MPTP Parkinson's disease model mouse (western blot); conditions: midbrain, MPTP Parkinson's disease model mouse, western blot
Description: as §1
Oxidative stress is an important pathogenic mechanism of PD. Dopaminergic neurons are more sensitive to oxidative stress and are more susceptible to oxidative stress damage. Glutathione (GSH) is an important antioxidant substance in the cell, and glutamate cysteine ligase (GCL) is the rate-limiting enzyme for GSH synthesis, which is composed of catalytic subunit (GCLC) and regulatory subunit (GCLM). The increase of GCLC expression can promote the synthesis of GSH and enhance the ability of tissue cells against oxidative stress. GCL, a phase II enzyme, plays an important protective role by catalyzing the conversion of free radicals into non-toxic products and increasing their water solubility to facilitate the elimination of free radicals, and maintain the redox balance in the body. It plays an important role in the process of protecting cells against oxidative stress damage. The activation of p38 protein phosphorylation has a negative regulatory effect on phase II enzymes. […] Using GCLC as an indicator, the inhibitory effect of the target compounds on MPTP-induced oxidative stress damage in PD mice can be investigated.
GCLC is expressed in astrocytes, microglial cells, and neurons. The total proteins of the midbrain tissue of mice in each experiment group were extracted, to determine the expression of phase II enzyme GCLC in the midbrain of mice by western blot using GAPDH as the internal reference. The experiment included blank control group, MPTP model group, positive control group (caffeic acid phenethyl ester, CAPE), prototype control group (styryl sulfone compounds 3B, 3C, 3D), and 3G, whose structures are shown as above), and target compound group.

COc1ccc(CC(=O)Oc2ccc(/C(C)=C/S(=O)(=O)/C=C/c3ccc(OC(=O)N(C)C)c(O[Si](C)(C)CCl)c3)cc2)cc1 [Compound P1-7, 4-{(E)-1-[(E)-3-(chloromethyldimethylsiloxy)-4-(N,N-dimethylcarbamoyloxy)styrylsulfonyl]prop-1-en-2-yl}phenyl-2-(4-methoxyphenyl) acetate]
Expression (Immunofluorescence intensity %) [1]: 77.29 ± 13.06% | Expression (pp38/GAPDH) [2]: 0.40 ± 0.04 | Expression (p-α-s/GAPDH) [3]: 0.27 ± 0.08 | Expression (CD11b/GAPDH) [4]: 0.39 ± 0.03 | Expression (GCLC/GAPDH) [5]: 0.87 ± 0.08

CC[Si](CC)(Oc1ccc(C(Cl)S(=O)(=O)/C=C/c2ccc(OC(=O)N3CC(C)OC(C)C3)c(OC(=O)c3cccc(Cl)c3OC)c2)cc1)c1ccccc1 (stereo not shown) [Compound R1-5, (E)-4-{2-[4-(diethylphenylsiloxy)phenylchloromesyl]ethenyl}-2-(3-chloro-2-methoxybenzoyloxy)phenyl-2,6-dimethylmorpholine-4-carboxylate]
Expression (Immunofluorescence intensity %) [1]: 101.93 ± 7.44% | Expression (pp38/GAPDH) [2]: 0.44 ± 0.07 | Expression (p-α-s/GAPDH) [3]: 0.46 ± 0.11 | Expression (CD11b/GAPDH) [4]: 1.25 ± 0.08 | Expression (GCLC/GAPDH) [5]: 1.02 ± 0.09

Cc1ccc(S(=O)(=O)Oc2ccc(CS(=O)(=O)/C=C/c3ccc(OS(=O)(=O)c4ccc(C)cc4)c(OC(=O)N(C)S(=O)(=O)c4ccc(C)cc4)c3)cc2)cc1 [Compound S6-6, (E)-2-(N-methyl-N-p-tosylcarbamoyloxy)-4-{2-[(4-p-tosyloxyphenyl)mesyl]ethenyl}phenyl p-toluenesulfonate]
Expression (Immunofluorescence intensity %) [1]: 105.30 ± 10.08% | Expression (pp38/GAPDH) [2]: 0.27 ± 0.05 | Expression (p-α-s/GAPDH) [3]: 0.28 ± 0.06 | Expression (CD11b/GAPDH) [4]: 0.62 ± 0.04 | Expression (GCLC/GAPDH) [5]: 1.29 ± 0.08

O=C(/C=C/c1ccc(O)c(O)c1)OCCc1ccccc1 [Positive control group, caffeic acid phenethyl ester, reference compound]
Expression (Immunofluorescence intensity %) [1]: 139.72 ± 25.32% | Expression (pp38/GAPDH) [2]: 0.58 ± 0.12 | Expression (p-α-s/GAPDH) [3]: 0.54 ± 0.12 | Expression (CD11b/GAPDH) [4]: 1.28 ± 0.10 | Expression (GCLC/GAPDH) [5]: 0.77 ± 0.06

(E)-2-[(methylamino)methoxy]-4-{2-[1-(4′-nitro-[1,1′-biphenyl]-4-yl)ethylsulfonyl]ethenyl}phenylcarbamate [Compound M1-3]
Expression (Immunofluorescence intensity %) [1]: 100.22 ± 14.12% | Expression (pp38/GAPDH) [2]: 0.42 ± 0.06 | Expression (p-α-s/GAPDH) [3]: 0.42 ± 0.05 | Expression (CD11b/GAPDH) [4]: 0.84 ± 0.06 | Expression (GCLC/GAPDH) [5]: 0.82 ± 0.07
